From ChEMBL document CHEMBL1201862, “PubChem BioAssay data set” (2004)
The source made the active and inactive calls.

Tests used:
[1] = molecular target: Delta-type opioid receptor (Homo sapiens, UniProt P41143); experiment: Counterscreen for agonists of heterodimerization of the mu 1 (OPRM1) and delta 1 (OPRD1) opioid receptors: Luminescence-based cell-based high throughput dose response assay to identify agonists of OPRD1 homodimerization. [Related pubchem assays (depositor defined):AID504326, AID504355, AID504692, AID504904, AID504905]; format: functional
Mu-type opioid receptor = Mu-type opioid receptor (Homo sapiens, UniProt P35372); experiment: Counterscreen for agonists of heterodimerization of the mu 1 (OPRM1) and delta 1 (OPRD1) opioid receptors: Luminescence-based cell-based high throughput dose response assay to identify agonists of OPRM1 homodimerization.; format: functional;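 note: U2OS cells expressing OPRM1 and beta-arrestin as split beta-galactosidase partners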
[2] = molecular target: 5-hydroxytryptamine receptor 5A (Homo sapiens, UniProt P47898); experiment: Counterscreen for agonists of OPRM1-OPRD1 heterodimerization: luminescence-based cell-based high throughput dose response assay to identify agonists of 5-hydroxytryptamine (serotonin) 5A receptor (HTR5A). [Related pubchem assays (depositor defined):AID504326, AID504355, AID504692, AID504904, AID504905]; format: functional
[3] = molecular target: T1, Short transient receptor potential channel 4 (Mus musculus, UniProt Q9QUQ5); experiment: mouse TRPC4 channel activators, dose response, cell-based, HEK293 TRPC4/mu-opioid, Fluo-4 calcium (AID 434937); format: functional
T1 sequence (Q9QUQ5 whole entry): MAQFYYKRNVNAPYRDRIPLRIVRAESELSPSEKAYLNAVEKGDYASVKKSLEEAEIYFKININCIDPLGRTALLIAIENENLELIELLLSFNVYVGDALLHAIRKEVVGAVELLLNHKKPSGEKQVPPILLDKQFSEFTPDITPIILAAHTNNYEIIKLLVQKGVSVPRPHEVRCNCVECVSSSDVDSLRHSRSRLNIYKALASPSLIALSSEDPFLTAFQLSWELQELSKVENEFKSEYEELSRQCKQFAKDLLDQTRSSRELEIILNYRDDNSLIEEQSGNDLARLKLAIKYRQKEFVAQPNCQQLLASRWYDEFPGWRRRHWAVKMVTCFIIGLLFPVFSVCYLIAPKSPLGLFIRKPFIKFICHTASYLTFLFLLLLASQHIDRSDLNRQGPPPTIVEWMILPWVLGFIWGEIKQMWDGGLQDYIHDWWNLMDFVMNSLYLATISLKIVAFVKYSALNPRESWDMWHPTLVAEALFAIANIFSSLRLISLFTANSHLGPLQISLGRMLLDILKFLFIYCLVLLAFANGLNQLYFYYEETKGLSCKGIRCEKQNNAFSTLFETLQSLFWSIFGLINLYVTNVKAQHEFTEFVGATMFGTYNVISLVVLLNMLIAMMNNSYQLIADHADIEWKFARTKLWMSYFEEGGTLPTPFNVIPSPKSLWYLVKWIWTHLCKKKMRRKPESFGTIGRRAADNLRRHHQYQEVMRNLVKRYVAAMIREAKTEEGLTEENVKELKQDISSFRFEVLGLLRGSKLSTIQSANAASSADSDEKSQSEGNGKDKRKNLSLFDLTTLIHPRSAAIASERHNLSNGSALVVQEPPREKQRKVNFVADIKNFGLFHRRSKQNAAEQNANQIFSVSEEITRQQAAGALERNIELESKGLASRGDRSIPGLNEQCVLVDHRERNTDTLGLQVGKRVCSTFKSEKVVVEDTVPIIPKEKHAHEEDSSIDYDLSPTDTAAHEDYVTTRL

[4] = inhibitors of intracellular T. cruzi replication, confirmation, NIH3T3 host cells, beta-gal luminescence (AID 2044); format: functional, cell-based;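 note: intracellular parasites grown in NIH/3T3 mouse fibroblasts as host cells; luminescent beta-galactosidase reporter signal from transgenic T. cruzi replicating inside host cells; inhibitors lower the luminescence signal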
[5] = cytotoxicity toward NIH3T3 fibroblasts, dose response, counter-screen, cell-based, ATP luminescence, mouse fibroblasts (AID 2010); format: functional;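 note: cells exposed to compound for about 90 hours before reading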
Cytochrome P450 3A4 = Cytochrome P450 3A4 (Homo sapiens, UniProt P08684); details: Potency;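 note: confirmatory qHTS run detecting inhibitors and substrates of CYP3A4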
HEK293 [6] = experiment: NOD2 signaling inhibitors in MDP-stimulated cells, cell-based, uHTS, luminescence (AID 2001); format: functional; details: Homo sapiens
HEK293 [7] = experiment: cells; format: functional, cell-based; details: Homo sapiens
INS1 = experiment: beta cell apoptosis inhibitors, cytokine rescue, dose response, luminescence, retest (AID 449756); format: functional, cell-based; details: Rattus norvegicus;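 note: cell death triggered by IL-1 beta plus TNF-alpha plus IFN-gamma mixture; protective hits raise ATP signal compared with cytokine alone wells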
HEK293 [8] = experiment: NOD1 signaling inhibitors, primary screen, cell-based, luminescence, uHTS (AID 1578); format: functional; details: Homo sapiens
HEK293 [9] = experiment: cells; format: functional, cell-based; details: Homo sapiens; remark: listed apart in the source
HEK293 [10] = experiment: cells; format: functional, cell-based; details: Homo sapiens; remark: listed apart in the source
[11] = molecular target: T2, Voltage-gated N-type calcium channel alpha-1B subunit/Amyloid beta A4 precursor protein-binding family A member 1 (Homo sapiens, UniProt Q00975+Q02410); format: protein assay
[12] = molecular target: T2, Voltage-gated N-type calcium channel alpha-1B subunit/Amyloid beta A4 precursor protein-binding family A member 1; format: protein assay; remark: listed apart in the source
[13] = molecular target: Nucleotide-binding oligomerization domain-containing protein 2 (Homo sapiens, UniProt Q9HC29); experiment: NOD2 signaling inhibitors, cell-based, luminescence, uHTS, HEK293 (AID 1566); format: functional
[14] = molecular target: DNA dC->dU-editing enzyme APOBEC-3G (Homo sapiens, UniProt Q9HC16); format: functional;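 note: Dose-response counterscreen measuring inhibition of APOBEC3G DNA deaminase activity, run while confirming APOBEC3A inhibitors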
[15] = molecular target: T3, Heat shock factor protein 1 (Mus musculus, UniProt P38532); experiment: HSF1 potentiators in luciferase reporter cells, confirmation, cell-based, NIH3T3, luminescence, dose retest (AID 435004); format: functional;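 note: stress induced by proteasome inhibitor MG132 added 30 min after compound; luciferase reporter driven by HSF1 response element in NIH3T3 cells; actives raise luminescence as potentiators of the MG132 stress response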
T3 sequence (P38532 whole entry): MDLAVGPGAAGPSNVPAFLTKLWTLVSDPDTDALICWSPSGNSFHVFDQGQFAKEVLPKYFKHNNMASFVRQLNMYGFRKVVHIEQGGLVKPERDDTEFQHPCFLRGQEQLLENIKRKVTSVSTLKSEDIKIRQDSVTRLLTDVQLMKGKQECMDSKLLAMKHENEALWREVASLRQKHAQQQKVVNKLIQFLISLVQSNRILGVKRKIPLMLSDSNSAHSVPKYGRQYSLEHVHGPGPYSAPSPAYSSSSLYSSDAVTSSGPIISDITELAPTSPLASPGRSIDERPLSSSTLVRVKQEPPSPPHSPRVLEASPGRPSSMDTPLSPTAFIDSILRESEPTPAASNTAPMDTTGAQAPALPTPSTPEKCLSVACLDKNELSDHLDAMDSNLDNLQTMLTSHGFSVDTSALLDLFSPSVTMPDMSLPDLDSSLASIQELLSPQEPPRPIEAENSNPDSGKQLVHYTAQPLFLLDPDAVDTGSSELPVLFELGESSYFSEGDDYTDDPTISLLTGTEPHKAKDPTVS

[16] = molecular target: DNA dC->dU-editing enzyme APOBEC-3A (Homo sapiens, UniProt P31941); experiment: Dose Response confirmation of small molecule APOBEC3A DNA Deaminase Inhibitors via a fluorescence-based single-stranded DNA deaminase assay. [Related pubchem assays (depositor defined):AID493011, AID493024]; format: functional
[17] = molecular target: T4, DNA repair and recombination protein RAD54-like (Homo sapiens, UniProt Q92698); experiment: inhibitors of human RAD54 branch migration, confirmation, biochemical, fluorescence, cherry-picked samples, dose series (AID 651657); format: functional
T4 sequence (Q92698 whole entry): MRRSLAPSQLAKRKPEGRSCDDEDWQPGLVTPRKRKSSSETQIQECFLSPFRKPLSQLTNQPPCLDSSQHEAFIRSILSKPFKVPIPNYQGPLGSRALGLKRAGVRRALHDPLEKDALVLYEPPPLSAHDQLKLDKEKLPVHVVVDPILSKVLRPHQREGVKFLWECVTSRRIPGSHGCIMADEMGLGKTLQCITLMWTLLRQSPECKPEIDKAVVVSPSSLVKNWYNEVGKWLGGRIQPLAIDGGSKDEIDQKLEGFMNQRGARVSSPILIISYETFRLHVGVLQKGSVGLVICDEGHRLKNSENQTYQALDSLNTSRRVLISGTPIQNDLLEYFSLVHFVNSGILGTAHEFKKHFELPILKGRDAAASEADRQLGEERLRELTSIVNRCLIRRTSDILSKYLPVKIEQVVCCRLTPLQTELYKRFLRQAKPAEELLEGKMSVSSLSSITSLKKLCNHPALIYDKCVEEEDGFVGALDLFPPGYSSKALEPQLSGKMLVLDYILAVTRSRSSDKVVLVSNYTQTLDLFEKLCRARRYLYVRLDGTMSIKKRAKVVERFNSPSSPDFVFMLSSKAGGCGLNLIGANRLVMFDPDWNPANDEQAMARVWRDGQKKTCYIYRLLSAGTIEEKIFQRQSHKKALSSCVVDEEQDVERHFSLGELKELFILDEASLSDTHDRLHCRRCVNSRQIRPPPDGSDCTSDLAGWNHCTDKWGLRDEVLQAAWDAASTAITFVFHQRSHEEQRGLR

Nonstructural protein 1 = Nonstructural protein 1 (Influenza A virus, UniProt Q194T2); format: functional, Influenza A virus (A/California/07/2009(H1N1))
[18] = molecular target: T5, Sentrin-specific protease 8 (Homo sapiens, UniProt Q96LD8); format: functional
T5 sequence (Q96LD8 whole entry): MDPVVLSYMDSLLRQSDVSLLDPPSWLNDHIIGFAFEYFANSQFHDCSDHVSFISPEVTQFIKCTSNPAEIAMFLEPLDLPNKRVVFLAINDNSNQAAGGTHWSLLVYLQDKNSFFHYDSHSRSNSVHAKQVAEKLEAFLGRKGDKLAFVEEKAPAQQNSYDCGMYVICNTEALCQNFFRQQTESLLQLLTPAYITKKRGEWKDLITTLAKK

[19] = molecular target: T5, Sentrin-specific protease 8; format: functional; remark: listed apart in the source
[20] = molecular target: Eukaryotic translation initiation factor 4E (Mus musculus, UniProt P63073); experiment: eIF4E–eIF4G protein interaction inhibitors, dose response, biochemical, TR-FRET (AID 855); format: functional;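 note: potency for disrupting eIF4E binding to eIF4GI seen as loss of FRET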

Sequence of Cytochrome P450 3A4 (P08684 whole entry): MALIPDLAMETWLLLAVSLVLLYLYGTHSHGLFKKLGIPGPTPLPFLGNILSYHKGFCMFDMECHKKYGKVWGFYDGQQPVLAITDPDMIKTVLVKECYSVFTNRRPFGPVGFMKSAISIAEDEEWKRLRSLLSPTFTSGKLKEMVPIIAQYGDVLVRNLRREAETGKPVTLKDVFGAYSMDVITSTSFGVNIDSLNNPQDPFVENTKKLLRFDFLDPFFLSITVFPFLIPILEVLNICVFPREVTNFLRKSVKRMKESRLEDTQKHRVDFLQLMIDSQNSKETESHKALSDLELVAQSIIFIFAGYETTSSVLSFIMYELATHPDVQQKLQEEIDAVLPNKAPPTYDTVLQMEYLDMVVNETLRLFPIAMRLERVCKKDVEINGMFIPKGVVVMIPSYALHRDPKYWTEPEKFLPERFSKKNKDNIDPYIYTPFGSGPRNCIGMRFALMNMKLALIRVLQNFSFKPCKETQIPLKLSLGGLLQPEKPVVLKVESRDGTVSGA
T2 sequence (Q00975 whole entry): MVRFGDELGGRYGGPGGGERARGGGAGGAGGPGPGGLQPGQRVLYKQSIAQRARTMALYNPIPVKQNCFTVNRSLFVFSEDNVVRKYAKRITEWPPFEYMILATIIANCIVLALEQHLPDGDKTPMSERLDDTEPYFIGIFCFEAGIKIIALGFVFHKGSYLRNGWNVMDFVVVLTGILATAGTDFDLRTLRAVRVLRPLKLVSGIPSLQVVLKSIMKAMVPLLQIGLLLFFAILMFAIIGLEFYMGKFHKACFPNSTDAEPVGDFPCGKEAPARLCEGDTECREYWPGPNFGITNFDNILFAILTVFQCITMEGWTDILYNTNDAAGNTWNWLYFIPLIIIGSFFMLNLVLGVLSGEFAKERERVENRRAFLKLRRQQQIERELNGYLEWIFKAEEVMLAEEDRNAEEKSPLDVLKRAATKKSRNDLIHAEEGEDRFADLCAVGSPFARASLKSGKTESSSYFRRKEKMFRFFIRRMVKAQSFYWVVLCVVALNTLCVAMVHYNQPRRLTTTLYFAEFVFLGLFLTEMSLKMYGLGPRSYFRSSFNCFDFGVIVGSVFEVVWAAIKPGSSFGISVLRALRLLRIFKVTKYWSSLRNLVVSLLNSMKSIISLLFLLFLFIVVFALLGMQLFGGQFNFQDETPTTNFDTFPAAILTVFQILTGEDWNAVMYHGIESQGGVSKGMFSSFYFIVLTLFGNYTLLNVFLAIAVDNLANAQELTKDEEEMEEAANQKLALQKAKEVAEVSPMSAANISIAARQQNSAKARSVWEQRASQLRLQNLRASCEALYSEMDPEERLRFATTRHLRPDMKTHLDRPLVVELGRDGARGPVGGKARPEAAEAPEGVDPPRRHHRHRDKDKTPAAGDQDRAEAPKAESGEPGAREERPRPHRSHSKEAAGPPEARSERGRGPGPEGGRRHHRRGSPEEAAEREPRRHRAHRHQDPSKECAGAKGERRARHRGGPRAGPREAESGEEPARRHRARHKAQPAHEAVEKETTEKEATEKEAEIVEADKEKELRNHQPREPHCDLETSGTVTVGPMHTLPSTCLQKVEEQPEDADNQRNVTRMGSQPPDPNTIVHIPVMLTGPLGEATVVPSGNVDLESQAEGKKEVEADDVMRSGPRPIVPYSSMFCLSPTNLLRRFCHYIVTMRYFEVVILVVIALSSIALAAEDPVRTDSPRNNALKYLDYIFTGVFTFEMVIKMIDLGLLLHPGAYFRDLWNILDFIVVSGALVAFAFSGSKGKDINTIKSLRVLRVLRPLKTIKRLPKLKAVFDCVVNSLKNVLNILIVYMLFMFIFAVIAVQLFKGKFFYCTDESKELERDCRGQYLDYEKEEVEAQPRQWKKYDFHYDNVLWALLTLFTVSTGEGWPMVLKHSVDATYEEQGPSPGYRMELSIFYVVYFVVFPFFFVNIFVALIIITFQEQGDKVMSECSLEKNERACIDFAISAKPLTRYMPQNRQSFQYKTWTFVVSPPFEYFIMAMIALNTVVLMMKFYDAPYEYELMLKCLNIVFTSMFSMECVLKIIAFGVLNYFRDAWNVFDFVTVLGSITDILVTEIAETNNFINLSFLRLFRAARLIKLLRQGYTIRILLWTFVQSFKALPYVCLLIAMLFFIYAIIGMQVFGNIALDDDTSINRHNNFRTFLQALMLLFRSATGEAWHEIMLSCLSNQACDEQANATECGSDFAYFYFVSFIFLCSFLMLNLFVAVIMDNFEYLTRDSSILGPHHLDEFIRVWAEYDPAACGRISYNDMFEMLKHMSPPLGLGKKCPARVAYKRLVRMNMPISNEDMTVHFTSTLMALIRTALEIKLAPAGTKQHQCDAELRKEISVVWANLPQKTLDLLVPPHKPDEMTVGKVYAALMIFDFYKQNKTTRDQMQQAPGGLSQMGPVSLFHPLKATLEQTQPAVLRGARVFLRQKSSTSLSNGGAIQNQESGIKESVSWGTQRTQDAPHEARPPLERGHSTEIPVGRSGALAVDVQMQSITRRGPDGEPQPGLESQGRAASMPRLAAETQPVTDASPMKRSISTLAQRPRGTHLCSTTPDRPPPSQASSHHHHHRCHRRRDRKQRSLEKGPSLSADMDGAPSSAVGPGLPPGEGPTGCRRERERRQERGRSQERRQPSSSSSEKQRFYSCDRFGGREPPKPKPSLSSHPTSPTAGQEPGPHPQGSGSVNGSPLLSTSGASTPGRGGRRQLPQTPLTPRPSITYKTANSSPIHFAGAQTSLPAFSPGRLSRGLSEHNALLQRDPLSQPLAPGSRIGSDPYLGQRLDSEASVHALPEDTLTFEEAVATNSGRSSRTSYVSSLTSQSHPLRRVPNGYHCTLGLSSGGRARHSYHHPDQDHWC
T2 sequence (Q02410 whole entry): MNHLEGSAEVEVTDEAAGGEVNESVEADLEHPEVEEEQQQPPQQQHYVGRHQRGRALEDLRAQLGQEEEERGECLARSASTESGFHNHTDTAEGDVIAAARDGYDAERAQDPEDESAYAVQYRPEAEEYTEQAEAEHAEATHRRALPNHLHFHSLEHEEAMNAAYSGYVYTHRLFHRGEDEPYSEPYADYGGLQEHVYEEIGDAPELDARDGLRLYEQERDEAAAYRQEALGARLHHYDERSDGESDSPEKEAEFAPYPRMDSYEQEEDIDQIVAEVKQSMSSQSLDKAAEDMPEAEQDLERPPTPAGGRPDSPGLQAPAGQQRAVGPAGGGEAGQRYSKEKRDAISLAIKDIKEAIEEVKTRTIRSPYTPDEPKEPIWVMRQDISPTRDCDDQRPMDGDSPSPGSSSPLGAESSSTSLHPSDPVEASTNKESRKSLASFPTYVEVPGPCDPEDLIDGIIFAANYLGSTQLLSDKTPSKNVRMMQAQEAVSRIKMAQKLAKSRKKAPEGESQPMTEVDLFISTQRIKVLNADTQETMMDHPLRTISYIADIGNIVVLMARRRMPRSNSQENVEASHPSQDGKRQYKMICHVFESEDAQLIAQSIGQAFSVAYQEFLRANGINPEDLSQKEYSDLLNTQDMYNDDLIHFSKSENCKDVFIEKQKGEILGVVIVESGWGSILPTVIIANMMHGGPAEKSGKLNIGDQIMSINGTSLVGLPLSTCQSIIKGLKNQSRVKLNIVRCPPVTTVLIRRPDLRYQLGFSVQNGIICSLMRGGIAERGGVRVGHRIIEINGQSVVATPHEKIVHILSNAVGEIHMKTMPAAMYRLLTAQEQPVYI
Sequence of Delta-type opioid receptor (P41143 whole entry): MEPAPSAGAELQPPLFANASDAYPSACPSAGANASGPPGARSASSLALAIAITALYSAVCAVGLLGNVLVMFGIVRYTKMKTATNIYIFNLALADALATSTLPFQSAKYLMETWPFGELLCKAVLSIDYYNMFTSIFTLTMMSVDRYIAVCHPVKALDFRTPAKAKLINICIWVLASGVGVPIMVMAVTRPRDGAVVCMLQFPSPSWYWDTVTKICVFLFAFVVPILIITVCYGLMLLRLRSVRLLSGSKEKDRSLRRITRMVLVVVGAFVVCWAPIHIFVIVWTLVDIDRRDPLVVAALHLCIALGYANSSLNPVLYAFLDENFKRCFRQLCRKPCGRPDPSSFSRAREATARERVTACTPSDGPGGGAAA
Sequence of 5-hydroxytryptamine receptor 5A (P47898 whole entry): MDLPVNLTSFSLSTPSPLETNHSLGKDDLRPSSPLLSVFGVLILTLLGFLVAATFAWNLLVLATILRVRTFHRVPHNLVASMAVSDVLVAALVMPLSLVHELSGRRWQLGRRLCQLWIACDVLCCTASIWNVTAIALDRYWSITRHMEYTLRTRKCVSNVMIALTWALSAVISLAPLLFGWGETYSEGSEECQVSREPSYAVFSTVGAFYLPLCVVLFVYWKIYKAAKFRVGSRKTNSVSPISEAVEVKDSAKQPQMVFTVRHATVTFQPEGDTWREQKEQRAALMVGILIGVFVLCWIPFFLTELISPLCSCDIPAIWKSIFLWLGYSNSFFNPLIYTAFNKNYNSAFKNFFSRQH
Sequence of Mu-type opioid receptor (P35372 whole entry): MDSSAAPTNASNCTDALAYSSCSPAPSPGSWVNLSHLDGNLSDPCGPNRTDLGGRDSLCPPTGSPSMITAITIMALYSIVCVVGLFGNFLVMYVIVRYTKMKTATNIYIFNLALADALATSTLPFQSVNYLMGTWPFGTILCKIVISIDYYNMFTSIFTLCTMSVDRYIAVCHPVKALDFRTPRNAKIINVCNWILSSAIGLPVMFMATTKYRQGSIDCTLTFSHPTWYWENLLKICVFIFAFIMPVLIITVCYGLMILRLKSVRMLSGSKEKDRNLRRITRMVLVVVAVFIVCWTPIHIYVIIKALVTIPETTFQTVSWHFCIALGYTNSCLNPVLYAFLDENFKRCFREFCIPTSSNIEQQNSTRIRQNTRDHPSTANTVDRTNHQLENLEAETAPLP
Sequence of DNA dC->dU-editing enzyme APOBEC-3A (P31941 whole entry): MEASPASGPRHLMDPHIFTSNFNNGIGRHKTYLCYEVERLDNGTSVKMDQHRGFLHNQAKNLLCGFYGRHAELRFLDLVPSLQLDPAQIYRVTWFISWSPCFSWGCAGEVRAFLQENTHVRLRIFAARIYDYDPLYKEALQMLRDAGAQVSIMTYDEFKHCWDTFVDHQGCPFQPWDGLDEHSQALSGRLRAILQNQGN

Structure (SMILES): OCC1(CCc2ccccc2)CCN(Cc2ccccc2Cl)CC1
- EC50 [1]: > 92.4 µM (inactive)
- EC50 (Mu-type opioid receptor): 67.6 µM (inactive)
- EC50 [2]: > 92.4 µM (inactive)

Structure (SMILES): CCC1(C)CC(CCNCc2ccc(N(C)C)cc2)(c2ccc(F)cc2)CCO1 (stereo not drawn)
- EC50 [1]: > 92.3 µM (inactive)
- EC50 (Mu-type opioid receptor): 29.2 µM (inactive)
- EC50 [2]: > 92.3 µM (inactive)
- EC50 [3]: 5.96 µM (active)

Structure (SMILES): CCOC(=O)C1(CCOc2ccccc2)CCN(Cc2cccn2-c2cccnc2)CC1
- EC50 [1]: > 92.5 µM (inactive)
- EC50 (Mu-type opioid receptor): 17.5 µM (inactive)
- EC50 [4]: 2.94 µM (active)
- EC50 [2]: > 92.5 µM (inactive)
- EC50 [5]: > 30 µM (not active)

Structure (SMILES): C[C@H]1C[C@]2(O[C@@H]2C)C(=O)O[C@@H]2CCN(C)C/C=C(/COC(=O)[C@]1(C)O)C2=O
- AC50 (Cytochrome P450 3A4): 25.1 µM (inconclusive)

Structure (SMILES): FC(F)(F)c1cnc(NN=C(S)Nc2ccccc2Cl)c(Cl)c1
- IC50 (HEK293 [6]): 6.98 µM (inactive)
- IC50 (HEK293 [7]): > 20 µM (inactive)
- AC50 (INS1): 7.04 µM (active)
- EC50 (HEK293 [8]): 6.06 µM (active)
- IC50 (HEK293 [9]): 15.1 µM (active)
- IC50 (HEK293 [10]): 6.49 µM (active)

Structure (SMILES): CC(C)c1ccc(/C=C2\SC(=O)N(CC(=O)NC3CCS(=O)(=O)C3)C2=O)cc1 (stereo not drawn)
- IC50 [11]: 12.4 µM (active)
- IC50 [12]: > 50 µM (inactive)

Structure (SMILES): CCN(CC)c1ccc(S(=O)(=O)N2CCOCC2)cc1NC(=O)CN1CCc2ccccc2C1
- IC50 (HEK293 [6]): 11.5 µM (inactive)
- IC50 (HEK293 [7]): > 20 µM (inactive)
- EC50 (HEK293 [8]): 10.5 µM (active)
- EC50 [13]: 11.5 µM (active)
- IC50 (HEK293 [9]): > 20 µM (inactive)
- IC50 (HEK293 [10]): 7.07 µM (active)

Structure (SMILES): Cc1ccc(C)c(NC(=O)C2CC(O)CN2C(=O)Oc2ccccc2)c1 (stereo not drawn)
- IC50 [14]: 10.4 µM (active)
- EC50 [15]: > 260 µM (inactive)
- IC50 [16]: 10 µM (active)

Structure (SMILES): Cc1c(CN(C)C)c2c(n1C)C(=O)c1ccc(Br)cc1-2
- AC50 [17]: 11.8 µM (active)

Structure (SMILES): FC(F)(F)c1cnc(NNC(=S)Nc2ccccc2Cl)c(Cl)c1
- EC50 [13]: 11 µM (active)

Structure (SMILES): Cc1cc(C)nc(NC(=S)Nc2ccc(Br)cc2Cl)c1
- IC50 [11]: 5.57 µM (active)
- IC50 [12]: > 50 µM (inactive)

Structure (SMILES): Cc1ccccc1/C=C/c1cc[n+](C)cc1
- IC50 [14]: 3.38 µM (active)
- IC50 [16]: 2.33 µM (active)

Structure (SMILES): Cc1n[nH]c(O)c1C(c1c(C)n[nH]c1O)c1cn(Cc2ccc(F)cc2)c2ccccc12
- IC50 (Nonstructural protein 1): 47.2 µM (active)
- IC50 [18]: 5.81 µM (active)
- IC50 [19]: 6.07 µM (active)

Structure (SMILES): O=C(O)c1cc(-c2ccco2)nn1-c1ccc(Cl)cc1
- IC50 [20]: 50 µM (inactive)
- IC50 [11]: 5.13 µM (active)
- IC50 [12]: 22.1 µM (active)

Structure (SMILES): CCC1=C2CC[C@H]3C(=O)N(CC(=O)OC)C(=O)[C@H]3[C@H]2[C@@]2(C)C(=O)N(CC3CC3)C(=O)N2C1=O
- AC50 (Cytochrome P450 3A4): 7.94 µM (inconclusive)

Structure (SMILES): CCCn1c(C)nc2c(NCCCCN(CC)CC)nc(C)nc21
- AC50 (Cytochrome P450 3A4): 20 µM (inconclusive)

Structure (SMILES): Cc1ccc(N)cc1Cl
- AC50 (Cytochrome P450 3A4): 12.6 µM (inconclusive)

Structure (SMILES): O=C(CSc1ccc(Cl)cc1)Nc1ccc(-c2nc3ccccc3[nH]2)cc1
- EC50 [1]: > 92.5 µM (inactive)
- EC50 (Mu-type opioid receptor): > 92.5 µM (inactive)
- EC50 [2]: > 92.5 µM (inactive)
